According to ChEMBL document CHEMBL1201862, “PubChem BioAssay data set” (2004):
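Each compound was tested at five concentrations against cells in 96-well plates for 48 hours. GI50 is the concentration that inhibits growth by half.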 Activity calls are given as the source filed them. Rule as the data show it: active = GI50 up to about 1.1 µM and inactive = higher.

How the values were obtained:
Experiment in all cases: NCI-60 cell line screen, 48 h
786-0 = test system: 786-0
BT-549 = test system: BT-549
DU-145 = test system: DU-145
HCT-116 = test system: HCT-116
HOP-92 = test system: HOP-92
LOX IMVI = test system: LOX IMVI
MDA-MB-231 = test system: MDA-MB-231
MDA-MB-435 = test system: MDA-MB-435
MOLT-4 = test system: MOLT-4
NCI-H226 = test system: NCI-H226
NCI-H23 = test system: NCI-H23
NCI-H460 = test system: NCI-H460
PC-3 = test system: PC-3
RPMI-8226 = test system: RPMI-8226
SF-268 = test system: SF-268
SNB-19 = test system: SNB-19
SW-620 = test system: SW-620
U-251 = test system: U-251
UACC-257 = test system: UACC-257
IGROV-1 = test system: IGROV-1

Measured: GI50

c1ccc(CSc2nnc3c4ccccc4c4ccccc4c3n2)cc1
inactive: 786-0 34.8 µM | BT-549 50 µM | DU-145 > 82.2 µM | HCT-116 > 82.4 µM | HOP-92 21.2 µM | LOX IMVI 62.7 µM | MDA-MB-231 35.2 µM | MDA-MB-435 58.1 µM | MOLT-4 39.1 µM | NCI-H226 45.6 µM | NCI-H23 48.2 µM | NCI-H460 > 88.3 µM | PC-3 64.9 µM | RPMI-8226 48 µM | SF-268 19.1 µM | SNB-19 33.2 µM | SW-620 38.2 µM | U-251 33.3 µM | UACC-257 > 100 µM

COc1ccc(-n2sc3ncc(C)cc3c2=O)cc1
inactive: 786-0 17.3 µM | BT-549 19.4 µM | DU-145 21.7 µM | HCT-116 18.3 µM | HOP-92 19.9 µM | IGROV-1 31.9 µM | LOX IMVI > 10 µM | MDA-MB-231 17 µM | MDA-MB-435 18.8 µM | MOLT-4 29.3 µM | NCI-H226 26.2 µM | NCI-H23 26.2 µM | NCI-H460 86.3 µM | PC-3 15.6 µM | RPMI-8226 26.2 µM | SF-268 20.9 µM | SNB-19 > 100 µM | SW-620 33.8 µM | U-251 22.4 µM

NC(CC(=O)O)(Cc1ccccc1)C(=O)O (configuration not stated)
inactive: 786-0 > 100 µM | BT-549 > 100 µM | DU-145 > 100 µM | HCT-116 > 100 µM | HOP-92 > 100 µM | IGROV-1 > 100 µM | LOX IMVI > 100 µM | MDA-MB-231 > 100 µM | MDA-MB-435 > 100 µM | MOLT-4 > 100 µM | NCI-H226 > 100 µM | NCI-H23 > 100 µM | NCI-H460 > 100 µM | PC-3 > 100 µM | RPMI-8226 > 100 µM | SNB-19 > 100 µM | SW-620 > 100 µM | U-251 > 100 µM | UACC-257 > 100 µM

Clc1ccc(Nc2nn3c(CCCCCCCCc4nnc5sc(Nc6ccc(Cl)cc6)nn45)nnc3s2)cc1
inactive: 786-0 51.6 µM | BT-549 > 100 µM | DU-145 > 100 µM | HCT-116 > 100 µM | HOP-92 > 100 µM | LOX IMVI > 100 µM | MDA-MB-231 29.4 µM | MDA-MB-435 > 100 µM | MOLT-4 90.6 µM | NCI-H226 > 100 µM | NCI-H23 > 100 µM | NCI-H460 > 100 µM | PC-3 > 100 µM | RPMI-8226 > 100 µM | SF-268 > 100 µM | SNB-19 25.1 µM | SW-620 > 100 µM | U-251 37 µM | UACC-257 > 100 µM

CC(=O)O[C@H]1CC[C@H]2[C@@H]3CCC4=CC(=O)C=C[C@]4(O)[C@H]3CC[C@]12C
inactive: 786-0 50.6 µM | BT-549 43 µM | DU-145 > 50.4 µM | HCT-116 21.9 µM | HOP-92 23.9 µM | IGROV-1 55.1 µM | LOX IMVI 12.9 µM | MDA-MB-231 > 82.8 µM | MDA-MB-435 16.4 µM | MOLT-4 8 µM | NCI-H226 16.6 µM | NCI-H23 9.91 µM | NCI-H460 32.2 µM | PC-3 30.1 µM | RPMI-8226 3.47 µM | SNB-19 71.6 µM | SW-620 25.5 µM | U-251 46 µM | UACC-257 18.4 µM

COc1ccccc1C(=O)OCC1CCCN2CCCCC12 (configuration not stated)
inactive: 786-0 > 100 µM | BT-549 17.7 µM | DU-145 > 100 µM | HCT-116 40.3 µM | HOP-92 > 100 µM | LOX IMVI 17.1 µM | MDA-MB-231 24.8 µM | MDA-MB-435 64.3 µM | MOLT-4 38.5 µM | NCI-H226 54.8 µM | NCI-H23 > 100 µM | NCI-H460 21.6 µM | PC-3 85.5 µM | RPMI-8226 42.2 µM | SF-268 36.5 µM | SNB-19 35.9 µM | SW-620 > 100 µM | U-251 26 µM | UACC-257 31 µM

N#Cc1c(C#N)c(-c2cccc([N+](=O)[O-])c2)n(-c2ccccc2)c1N
inactive: 786-0 51.5 µM | BT-549 5.11 µM | DU-145 > 100 µM | HCT-116 > 100 µM | HOP-92 17.8 µM | IGROV-1 89.1 µM | LOX IMVI > 100 µM | MDA-MB-231 38.7 µM | MDA-MB-435 > 100 µM | MOLT-4 > 100 µM | NCI-H226 18 µM | NCI-H23 > 100 µM | PC-3 > 100 µM | RPMI-8226 > 100 µM | SF-268 88.7 µM | SNB-19 46.8 µM | SW-620 > 100 µM | U-251 44.8 µM | UACC-257 > 100 µM

CC(C)C(C/C=C1/CC(CO)(COC(=O)C2CCCCC2)OC1=O)C(C)C (configuration not stated)
inactive: 786-0 12.4 µM | BT-549 25.2 µM | DU-145 13.2 µM | HCT-116 17.5 µM | HOP-92 13.6 µM | IGROV-1 19.1 µM | LOX IMVI 14.2 µM | MDA-MB-231 17 µM | MDA-MB-435 34.7 µM | MOLT-4 17.8 µM | NCI-H226 21.4 µM | NCI-H23 16.6 µM | NCI-H460 20.2 µM | PC-3 17.1 µM | SF-268 17.6 µM | SNB-19 15 µM | SW-620 22.3 µM | U-251 18.3 µM | UACC-257 26.9 µM
